Measured values published in paper PMC10484737 (Nucleic Acids Research, 2023).
Entries after “also recorded” stand apart in the source; their conditions may differ.

T1: TsaN^749−1008 (TcdA domain of TsaN) (Pandoravirus salinus, UniProt A0A291ATS8)
T1 sequence (A0A291ATS8 749-1008): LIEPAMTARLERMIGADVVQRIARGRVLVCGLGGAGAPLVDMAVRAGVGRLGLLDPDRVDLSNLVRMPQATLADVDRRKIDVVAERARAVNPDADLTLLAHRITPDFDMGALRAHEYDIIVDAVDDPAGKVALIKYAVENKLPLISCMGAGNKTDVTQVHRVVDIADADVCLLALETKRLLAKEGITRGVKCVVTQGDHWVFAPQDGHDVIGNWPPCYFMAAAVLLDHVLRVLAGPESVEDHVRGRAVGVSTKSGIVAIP

T2: TsaN^1−392 (TsaD domain of TsaN) (Pandoravirus salinus, UniProt A0A291ATS8)
T2 sequence (A0A291ATS8 1-392): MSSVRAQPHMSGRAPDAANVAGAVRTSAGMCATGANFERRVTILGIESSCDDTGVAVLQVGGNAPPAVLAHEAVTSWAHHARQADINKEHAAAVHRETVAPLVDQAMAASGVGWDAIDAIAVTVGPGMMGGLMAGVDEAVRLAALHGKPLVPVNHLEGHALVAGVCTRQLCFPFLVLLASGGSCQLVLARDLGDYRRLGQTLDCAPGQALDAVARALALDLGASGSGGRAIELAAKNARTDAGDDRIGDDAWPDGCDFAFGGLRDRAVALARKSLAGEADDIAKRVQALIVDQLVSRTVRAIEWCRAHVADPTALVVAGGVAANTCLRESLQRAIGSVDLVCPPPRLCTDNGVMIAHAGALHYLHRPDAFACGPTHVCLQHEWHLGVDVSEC

T3: TsaN (Pandoravirus salinus, UniProt A0A291ATS8)
T3 sequence (A0A291ATS8 1-1008): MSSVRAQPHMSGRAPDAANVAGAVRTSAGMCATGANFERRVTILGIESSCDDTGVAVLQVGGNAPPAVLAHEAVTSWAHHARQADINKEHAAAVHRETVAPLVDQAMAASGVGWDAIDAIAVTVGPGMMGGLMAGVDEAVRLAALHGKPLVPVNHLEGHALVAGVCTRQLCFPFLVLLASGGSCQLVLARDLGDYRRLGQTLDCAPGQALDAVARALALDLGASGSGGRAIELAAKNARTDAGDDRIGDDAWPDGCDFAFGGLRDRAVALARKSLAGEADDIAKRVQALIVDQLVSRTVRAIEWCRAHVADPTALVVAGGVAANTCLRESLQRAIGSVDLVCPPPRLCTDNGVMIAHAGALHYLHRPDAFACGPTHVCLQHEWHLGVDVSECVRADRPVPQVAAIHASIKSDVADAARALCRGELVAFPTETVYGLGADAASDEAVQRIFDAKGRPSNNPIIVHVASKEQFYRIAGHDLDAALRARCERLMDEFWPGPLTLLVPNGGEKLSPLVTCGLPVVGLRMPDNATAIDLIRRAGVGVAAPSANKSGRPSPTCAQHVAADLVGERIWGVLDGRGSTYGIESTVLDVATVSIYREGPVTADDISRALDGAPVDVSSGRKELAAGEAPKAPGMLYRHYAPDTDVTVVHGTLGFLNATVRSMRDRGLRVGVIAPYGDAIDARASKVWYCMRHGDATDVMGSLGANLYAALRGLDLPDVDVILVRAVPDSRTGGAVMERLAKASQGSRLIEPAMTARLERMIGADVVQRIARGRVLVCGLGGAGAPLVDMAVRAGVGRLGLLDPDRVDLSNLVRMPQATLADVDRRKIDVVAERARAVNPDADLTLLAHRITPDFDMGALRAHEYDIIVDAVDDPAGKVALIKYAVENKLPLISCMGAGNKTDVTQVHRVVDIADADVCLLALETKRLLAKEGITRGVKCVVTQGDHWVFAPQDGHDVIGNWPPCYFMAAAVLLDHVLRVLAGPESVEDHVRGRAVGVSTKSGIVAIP

B1: TsaN (Pandoravirus salinus) (protein)
chain: T3 sequence (A0A291ATS8 1-1008)
B2: TsaN^1−392 (Pandoravirus salinus) (protein)
chain: T2 sequence (A0A291ATS8 1-392)

How the values were obtained:
[1] = target: Pandoravirus salinus TsaN (TsaD-TsaC-SUA5-TcdA modular protein), full length (Pandoravirus salinus); assay: SEC-MALS
[2] = target: Pandoravirus salinus TsaN (TsaD-TsaC-SUA5-TcdA modular protein), full length (Pandoravirus salinus); assay: SEC
[3] = target: T1, TsaN^749−1008 (TcdA domain of TsaN); assay: ITC, ligand binding to the TcdA domain; parameters: species or system P. salinus
[4] = target: T2, TsaN^1−392 (TsaD domain of TsaN); assay: ITC, nucleotide binding to the TsaD domain; parameters: species or system P. salinus; conditions: for ΔG / ΔH: 30 μM TsaN^1−392 titrated with 360 μM ligand
[5] = target: TsaN^749-1008 (TcdA domain of P. salinus TsaN) (Pandoravirus salinus); assay: SEC-MALS
[6] = target: T3, TsaN; assay: Effect of divalent metal ions on biosynthesis of t^6ADP and t^6ATP; format: biochemical, P. salinus; conditions: pre-bound metals removed by dialysis with EDTA
[7] = test system: TsaN^749−1008; assay: Enzymatic assay of ct^6A, LC–MS; format: biochemical, P. salinus; conditions: for ct^6A formation from synthetic t^6A in the presence of the nucleotide (ct^6A/t^6A): TsaN^749−1008 and synthetic t^6A plus ATP, AMPCPP, AMP or AMP + PPi
[8] = test system: TsaN^H155A/H159A; assay: NADH-coupled ATPase assay; format: biochemical, P. salinus; conditions: 5 μM TsaN^H155A/H159A
[9] = target: TsaN^(1−392)H155A/H159A; assay: ITC, ATP binding to the TsaD domain variant; parameters: species or system P. salinus; conditions: 30 μM TsaN^(1−392)H155A/H159A titrated with 360 μM ligand
[10] = substrate: Nc1ncnc2c1ncn2[C@@H]1O[C@H](COP(=O)(O)OP(=O)(O)OP(=O)(O)O)[C@@H](O)[C@H]1O; assay: NADH-coupled ATPase assay; format: biochemical, P. salinus; conditions: 25°C, pH 7.5
[11] = 30 μM TsaN^749−1008 titrated with 360 μM ligand
[12] = 30 μM TsaN^749−1008, 360 μM ligand, in the presence of 100 μM synthetic t^6A
[13] = other: 5 μM TsaN^1−392, varying ATP

Molecule	K D [3, 11]	N (sites) [3, 11]	ΔG [3, 11]	ΔH [3, 11]	ΔG [4]	ΔH [4]	also measured
Pandoravirus salinus TsaN (TsaD-TsaC-SUA5-TcdA modular protein), full length (enzyme)	–	–	–	–	–	–	stoichiometry N [1]: 2; stoichiometry N [2]: 2
Nc1ncnc2c1ncn2[C@@H]1O[C@H](COP(=O)(O)OP(=O)(O)O)[C@@H](O)[C@H]1O [ADP]	not able to determine the binding; also recorded: No binding	No binding	No binding	No binding	-7.05 kcal/mol	-2.74 ± 0.62 kcal/mol	ITC binding to AMP-bound TsaN^1-392 ([4]; 30 μM AMP-bound TsaN^1-392 titrated with 360 μM ADP, data not shown): no binding curves
TsaN^749-1008 (TcdA domain of P. salinus TsaN) (domain or fragment)	–	–	–	–	–	–	stoichiometry N [5]: 2
[Cl][Mn][Cl] [MnCl2]	–	–	–	–	–	–	effect of divalent metal ion on catalytic activity of TsaN (t^6A/A) [6]: stimulated the catalytic activity
Nc1ncnc2c1ncn2[C@@H]1O[C@H](COP(=O)(O)O)[C@@H](O)[C@H]1O [AMP]	not able to determine the binding; also recorded: No binding	No binding	No binding	No binding	-6.49 kcal/mol	-4.74 ± 1.46 kcal/mol	ct^6A formation from synthetic t^6A in the presence of the nucleotide (ct^6A/t^6A) [7]: not observed the formation of ct^6A
Nc1ncnc2c1ncn2[C@@H]1O[C@H](CO[P@](=O)(O)O[P@](=O)(O)O[P@@](=O)(O)S)[C@@H](O)[C@H]1O [ATPγS]	–	–	–	–	-6.77 kcal/mol	-6.02 ± 2.38 kcal/mol	Kd [4]: 10.9 ± 8.91 µM
Nc1ncnc2c1ncn2[C@@H]1O[C@H](COP(=O)(O)OP(=O)(O)OP(=O)(O)O)[C@@H](O)[C@H]1O [ATP]	not able to determine the binding; also recorded: No binding	No binding	No binding	No binding	–	–	production of ADP in the ATPase assay [8]: not detected; K D [9]: does not bind; also recorded: No binding; ct^6A formation from synthetic t^6A in the presence of the nucleotide (ct^6A/t^6A) [7]: efficient conversion of t^6A to ct^6A; ATP hydrolysis ([7]; in the absence of synthetic t^6A, data not shown): not hydrolyzed
Nc1ncnc2c1ncn2[C@@H]1O[C@H](CO)[C@@H](O)[C@H]1O [A, adenosine]	not able to determine the binding; also recorded: No binding	No binding	No binding	No binding	No binding	No binding	–
Nc1ncnc2c1ncn2[C@@H]1O[C@H](COP(=O)(O)CP(=O)(O)OP(=O)(O)O)[C@@H](O)[C@H]1O [AMPCPP]	–	–	–	–	–	–	K D [3, 12]: not observed a binding signal; also recorded: No binding; N (sites) [3, 12]: No binding; ΔG [3, 12]: No binding; ΔH [3, 12]: No binding; ct^6A formation from synthetic t^6A in the presence of the nucleotide (ct^6A/t^6A) [7]: not observed the formation of ct^6A
B1	–	–	–	–	–	–	Km ([10]; other: 5 μM TsaN, varying ATP): 40 µM; Vmax ([10]; other: 5 μM TsaN, varying ATP): 0.015 µM/s
B2	–	–	–	–	–	–	Km [10, 13]: 40 µM; Vmax [10, 13]: 0.015 µM/s
